{
  "source": "patent US20110190336A1",
  "about": "“AZABENZIMIDAZOLONES” (CARA THERAPEUTICS, INC., priority 2008, published 2011)",
  "data": [
    {"biological_target": "T1, human DP2 receptor (Homo sapiens, UniProt Q9Y5Y4)", "T1 construct": "expressed in transfected cells; host or cells: CHO-K1 FLP-In (Invitrogen, catalog no. R758-07), stably transfected", "T1 sequence (Q9Y5Y4 1-395)": "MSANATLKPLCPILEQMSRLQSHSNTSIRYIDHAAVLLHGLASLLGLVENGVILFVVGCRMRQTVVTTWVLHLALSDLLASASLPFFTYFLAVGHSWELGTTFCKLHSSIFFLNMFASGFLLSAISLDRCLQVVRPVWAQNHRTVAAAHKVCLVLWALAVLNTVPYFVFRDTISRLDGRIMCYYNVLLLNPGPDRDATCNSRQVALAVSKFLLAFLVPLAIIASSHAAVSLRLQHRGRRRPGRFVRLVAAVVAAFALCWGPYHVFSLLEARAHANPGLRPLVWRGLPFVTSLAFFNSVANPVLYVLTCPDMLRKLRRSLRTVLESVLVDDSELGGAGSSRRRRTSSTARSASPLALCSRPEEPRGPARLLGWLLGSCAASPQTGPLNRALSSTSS", "assay": "Prostaglandin D2 binding inhibition assay (scintillation proximity assay, 3H PGD2, membranes of transfected CHO cells)", "details": "SPA, 5.5 nM 3H PGD2, CHO-K1 FLP-In human DP2 membranes; upper limit determinable 30 μM; read-out: IC50 ranges for inhibition of PGD2 binding to human DP2", "procedure,_shortened": "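Membranes (5 μg) from CHO-K1 cells stably expressing human DP2 were mixed with WGA SPA beads and 5.5 nM 3H PGD2 in Tris buffer with 10 mM MgCl2, 100 mM NaCl, 0.1% BSA, plus compound. After 60 min at room temperature, CPM were read; IC50 from two-parameter nonlinear regression.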", "units": {"IC50": "µM"}, "values": [
      {"smiles": "Cc1ccc(CS(=O)(=O)N2CCC(n3c(=O)n(CC(=O)O)c4cccnc43)CC2)cc1", "note": "[Compound 56, 2-(3-(1-(4-methylbenzylsulfonyl)piperidin-4-yl)-2-oxo-2,3-dihydro-1H-imidazo[4,5-b]pyridin-1-yl)acetic acid]", "IC50": "10 to 30"},
      {"smiles": "O=C(O)Cn1c(=O)n(C2CCN(S(=O)(=O)c3cc(Cl)cc(Cl)c3)CC2)c2ncccc21", "note": "[Compound 84, 2-(3-(1-(3,5-dichlorophenyl-sulfonyl)piperidin-4-yl)-2-oxo-2,3-dihydro-1H-imidazo[4,5-b]pyridin-1-yl)acetic acid]", "IC50": "1 to 10"},
      {"smiles": "O=C(O)Cn1c(=O)n(C2CCN(S(=O)(=O)Cc3ccc(F)cc3)CC2)c2ncccc21", "note": "[Compound 64, 2-(3-(1-(4-fluorobenzylsulfonyl)piperidin-4-yl)-2-oxo-2,3-dihydro-1H-imidazo[4,5-b]pyridin-1-yl)acetic acid]", "IC50": "< 1"},
      {"smiles": "O=C(O)Cn1c(=O)n(C2CCN(S(=O)(=O)c3ccccc3Cl)CC2)c2ccncc21", "note": "[Compound 141, 2-(1-(1-(2-chlorophenylsulfonyl)piperidin-4-yl)-2-oxo-1H-imidazo[4,5-c]pyridin-3(2H)-yl)acetic acid]", "IC50": "> 30"},
      {"smiles": "O=C(O)Cn1c(=O)n(C2CCN(S(=O)(=O)c3ccc(F)c(Cl)c3)CC2)c2ncccc21", "note": "[Compound 88, 2-(3-(1-(3-chloro-4-fluorophenyl-sulfonyl)piperidin-4-yl)-2-oxo-2,3-dihydro-1H-imidazo[4,5-b]pyridin-1-yl)acetic acid]", "IC50": "1 to 10"},
      {"smiles": "O=C(O)Cn1c(=O)n(C2CCN(S(=O)(=O)c3cc(Cl)c(F)cc3F)CC2)c2ncccc21", "note": "[Compound 86, 2-(3-(1-(5-chloro-2,4-difluorophenyl-sulfonyl)piperidin-4-yl)-2-oxo-2,3-dihydro-1H-imidazo[4,5-b]pyridin-1-yl)acetic acid]", "IC50": "< 1"},
      {"smiles": "CS(=O)(=O)c1ccccc1S(=O)(=O)N1CCC(n2c(=O)n(CC(=O)O)c3ccncc32)CC1", "note": "[Compound 149, 2-(3-(1-(2-(methylsulfonyl)phenylsulfonyl)piperidin-4-yl)-2-oxo-2,3-dihydro-1H-imidazo[4,5-c]pyridin-1-yl)acetic acid]", "IC50": "1 to 10"},
      {"smiles": "Cc1ccc(S(=O)(=O)N2CCC(n3c(=O)n(CC(=O)O)c4cccnc43)CC2)s1", "note": "[Compound 53, 2-(3-(1-(5-methylthiophen-2-ylsulfonyl)piperidin-4-yl)-2-oxo-2,3-dihydro-1H-imidazo[4,5-b]pyridin-1-yl)acetic acid]", "IC50": "1 to 10"},
      {"smiles": "Cc1cnc2c(c1)n(CC(=O)O)c(=O)n2C1CCN(S(=O)(=O)c2ccc(F)cc2Cl)CC1", "note": "[Compound 126, 2-(3-(1-(2-chloro-4-fluorophenylsulfonyl)piperidin-4-yl)-6-methyl-2-oxo-2,3-dihydro-1H-imidazo[4,5-b]pyridin-1-yl)acetic acid]", "IC50": "10 to 30"},
      {"smiles": "O=C(O)Cn1c(=O)n(C2CCN(S(=O)(=O)c3ccc(F)cc3F)CC2)c2ncccc21", "note": "[Compound 93, 2-(3-(1-(2,4-difluorophenyl-sulfonyl)piperidin-4-yl)-2-oxo-2,3-dihydro-1H-imidazo[4,5-b]pyridin-1-yl)acetic acid]", "IC50": "< 1"},
      {"smiles": "O=C(O)Cn1c(=O)n(C2CCN(S(=O)(=O)c3cc(F)c(Br)cc3F)CC2)c2ncccc21", "note": "[Compound 83, 2-(3-(1-(4-bromo-2,5-difluorophenyl-sulfonyl)piperidin-4-yl)-2-oxo-2,3-dihydro-1H-imidazo[4,5-b]pyridin-1-yl)acetic acid]", "IC50": "< 1"},
      {"smiles": "O=C(O)Cn1c(=O)n(C2CCN(S(=O)(=O)c3ccc(Cl)cc3)CC2)c2ncccc21", "note": "[Compound 57, 2-(3-(1-(4-chlorophenylsulfonyl)piperidin-4-yl)-2-oxo-2,3-dihydro-1H-imidazo[4,5-b]pyridin-1-yl)acetic acid]", "IC50": "1 to 10"},
      {"smiles": "Cc1cnc2c(c1)n(CC(=O)O)c(=O)n2C1CCN(S(=O)(=O)c2ccccc2Cl)CC1", "note": "[Compound 127, 2-(3-(1-(2-chlorophenylsulfonyl)piperidin-4-yl)-6-methyl-2-oxo-2,3-dihydro-1H-imidazo[4,5-b]pyridin-1-yl)acetic acid]", "IC50": "1 to 10"}
    ]}
  ]
}
